In ChEMBL document CHEMBL4482324, “Ash1l inhibitors and methods of treatment therewith” (2017):
pIC50: −log10 of the molar value. Calls of active or inactive are those of the source. The calls are words filed in the database; no cut-off is given here.

Assays:
[1] = Effect on HOX7 gene expression in Hoxa9/Meis1 transformed mouse HM2 cells at 6 to 12 uM by quantitative RT-PCR analysis; assay type: ADME
[2] = target: Histone-lysine N-methyltransferase ASH1L (Mus musculus) (UniProt Q99MY8); assay: Inhibition of ASH1L in MLL-AF9 transformed mouse MA9 cells assessed as downregulation of HOX9 gene expression at 6 to 12 uM by quantitative RT-PCR analysis
[3] = Effect on HOX10 gene expression in Hoxa9/Meis1 transformed mouse HM2 cells at 6 to 12 uM by quantitative RT-PCR analysis; assay type: ADME
[4] = target: Histone-lysine N-methyltransferase ASH1L (Mus musculus) (UniProt Q99MY8); assay: Inhibition of ASH1L in MLL-AF9 transformed mouse MA9 cells assessed as downregulation of HOX10 gene expression at 6 to 12 uM by quantitative RT-PCR analysis
[5] = Cytotoxicity in Hoxa9/Meis1 transformed mouse HM2 cells assessed as reduction in cell viability incubated for 12 days with fresh compound replacement for every 4 days by MTT assay; assay type: cell-based
[6] = Induction of cell differentiation in Hoxa9/Meis1 transformed mouse HM2 cells at 6 to 12 uM
MV4-11 = assay: Cytotoxicity in human MV4-11 cells assessed as reduction in cell viability incubated for 12 days with fresh compound replacement for every 4 days by MTT assay; assay type: functional
[7] = target: Histone-lysine N-methyltransferase ASH1L (Homo sapiens, UniProt Q9NR48); assay: Inhibition of MOCR-fused ASH1L SET-BAH ( 2069 to 2833 amino acids) (unknown origin) expressed as in Escherichia coli BL21 (DE3) T1R cells using SAM and chicken mono/dinucleosomes incubated for 1 hr by scintillation counting assay
MOLM-13 = assay: Cytotoxicity in human MOLM13 cells assessed as reduction in cell viability incubated for 12 days with fresh compound replacement for every 4 days by MTT assay; assay type: functional
[8] = target: Histone-lysine N-methyltransferase ASH1L (Mus musculus) (UniProt Q99MY8); assay: Inhibition of ASH1L in MLL-AF9 transformed mouse MA9 cells assessed as downregulation of Meis1 gene expression at 6 to 12 uM by quantitative RT-PCR analysis
[9] = Effect on HOX9 gene expression in Hoxa9/Meis1 transformed mouse HM2 cells at 6 to 12 uM by quantitative RT-PCR analysis; assay type: ADME
[10] = target: Histone-lysine N-methyltransferase ASH1L (Mus musculus) (UniProt Q99MY8); assay: Inhibition of ASH1L in MLL-AF9 transformed mouse MA9 cells assessed as downregulation of HOX7 gene expression at 6 to 12 uM by quantitative RT-PCR analysis
Mus musculus = species: Mus musculus; assay: Induction of cell differentiation in MLL-AF9 transformed mouse MA9 cells at 6 to 12 uM; assay type: functional
[11] = Effect on Meis1 gene expression in Hoxa9/Meis1 transformed mouse HM2 cells at 6 to 12 uM by quantitative RT-PCR analysis; assay type: ADME
[12] = Cytotoxicity in MLL-AF9 transformed mouse MA9 cells assessed as reduction in cell viability incubated for 12 days with fresh compound replacement for every 4 days by MTT assay; assay type: functional

inhibition [2]: Active
inhibition [4]: Active
pIC50 [7]: 5.34
inhibition [8]: Active
inhibition [10]: Active
Structure (SMILES): NC(=S)c1cccc(-c2cn(CC(CF)CF)c3cc(N)ccc23)c1
Activity [1]: Non-Toxic
Activity [3]: Non-Toxic
GI50 at 288 h [5]: 33 µM
Activity [6]: Non-Toxic
GI50 (MV4-11): 2 µM
GI50 (MOLM-13): 9 µM
Activity [9]: Non-Toxic
Activity (Mus musculus): Active
Activity [11]: Non-Toxic
GI50 [12]: 6 µM
